Assay results from the supplement of paper PMC10307832.

What was measured:
Test in all cases: relative viability (nuclei count vs DMSO), 5 days (fraction); higher = more cells survive
[1] = compound: Cc1ccc2nc(NCCN)c3ncc(C)n3c2c1 + C[C@]1(O)C[C@@H](c2nc(-c3ccc4ccc(-c5ccccc5)nc4c3)c3c(N)nccn32)C1 [Linsitinib] (partner 1 µM)
Outline: (§1)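 Relative viability equals treated-well nuclei counts divided by vehicle-well nuclei counts. Counts came from 4× images of lung cancer cell lines grown in 1536-well plates for 5 days after pin-tool dosing on the day after seeding. Dosing used one drug alone or a fixed anchor-drug dose plus five library-drug doses (not always all listed) in √10 steps, and values are medians of duplicate plates.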

[2] = compound: Cc1ccc2nc(NCCN)c3ncc(C)n3c2c1 + Cc1nc(Nc2ncc(C(=O)Nc3c(C)cccc3Cl)s2)cc(N2CCN(CCO)CC2)n1 [Dasatinib] (partner 0.075 µM)
Outline: as §1

[3] = compound: Cc1ccc2nc(NCCN)c3ncc(C)n3c2c1 + Nc1nc2[nH]cc(CCc3ccc(C(=O)N[C@@H](CCC(=O)O)C(=O)O)cc3)c2c(=O)[nH]1 [Pemetrexed] (partner 0.2 µM)
Outline: as §1

Salubrinal + Lapatinib = compound: O=C(/C=C/c1ccccc1)NC(NC(=S)Nc1cccc2cccnc12)C(Cl)(Cl)Cl [Salubrinal] + CS(=O)(=O)CCNCc1ccc(-c2ccc3ncnc(Nc4ccc(OCc5cccc(F)c5)c(Cl)c4)c3c2)o1 [Lapatinib] (partner 2 µM)
Outline: as §1

Cell Line	relative viability ([1]; first compound 0.04 µM)	relative viability ([1]; first compound 0.1265 µM)	relative viability ([1]; first compound 0.4 µM)	relative viability ([1]; first compound 1.265 µM)	relative viability ([1]; first compound 4 µM)	relative viability ([2]; first compound 0.04 µM)	relative viability ([2]; first compound 0.1265 µM)	relative viability ([2]; first compound 0.4 µM)	relative viability ([2]; first compound 1.265 µM)	relative viability ([2]; first compound 4 µM)	relative viability ([3]; first compound 0.04 µM)	relative viability ([3]; first compound 0.1265 µM)	relative viability ([3]; first compound 0.4 µM)	relative viability ([3]; first compound 1.265 µM)	relative viability ([3]; first compound 4 µM)	relative viability (Salubrinal + Lapatinib; first compound 0.08 µM)	relative viability (Salubrinal + Lapatinib; first compound 0.253 µM)	relative viability (Salubrinal + Lapatinib; first compound 0.8 µM)	relative viability (Salubrinal + Lapatinib; first compound 2.53 µM)	relative viability (Salubrinal + Lapatinib; first compound 8 µM)
NCI-H1734	0.887	0.803	0.765	0.884	0.814	0.515	0.456	0.474	0.447	0.409	0.438	0.395	0.413	0.48	0.496	1.11	1.08	1.18	1.05	1.02
NCI-H1755	0.989	1	0.934	1.07	0.946	0.475	0.423	0.445	0.359	0.393	0.446	0.408	0.411	0.437	0.456	1.24	0.794	1.11	1.04	0.966
NCI-H1792	0.627	0.543	0.484	0.463	0.405	0.741	0.624	0.816	0.704	0.382	1.33	0.774		0.801	0.618	1.11		1.64	0.914	0.873
NCI-H1793	1.04	0.951	0.789	0.744	0.845	0.386	0.417	0.389	0.332	0.384	0.951	0.85	0.846	0.714	0.766	0.947	0.654	0.657	0.818	0.752
NCI-H1915	1.1		1.16	1.1	1	0.334	0.328		0.291	0.25	0.511	0.502	0.463	0.519	0.442	0.981	0.683	1.04	1	0.963
NCI-H1944	1.06	1.3	1.21	1.23	1.19	0.242	0.216	0.212	0.269	0.248	0.687	0.586	0.582	0.555	0.587	0.583	0.899	0.804	0.902	0.846
NCI-H1975	0.972	0.93	0.91	0.897	0.893	0.409	0.387	0.347	0.359	0.304	0.309	0.29	0.3	0.313	0.324	1.04	0.594	0.967	0.928	0.798
NCI-H1993	0.726	0.763	0.673	0.75	0.73	0.463	0.651	0.533	0.497	0.539	0.595	0.623	0.528	0.57	0.613	0.887	0.866	0.814	1.14	0.9
NCI-H2009	1.15	1.14	1.22	1.22	1.05	0.391	0.284	0.313	0.283	0.263	1.02	0.985	0.966	0.951	0.926	0.997	1.02	0.914	0.872	0.793
NCI-H2023	0.73	0.606	0.658	0.756	0.577	0.711	0.565	0.608	0.548	0.388	0.254	0.241	0.235	0.503	0.171	0.747	0.936	1.04	0.814	0.606
NCI-H2085	0.894	0.941	0.928	0.862	0.87	0.207	0.263	0.222	0.196	0.243	0.87	0.934	0.855	0.892	1	0.684	0.793	0.898	0.854	0.737
NCI-H2087	1.03	0.963	0.789	0.992	0.877	0.893	0.85	0.767	0.87	0.791	0.725	0.637	0.599	0.711	0.575	1.04	1.06	1.16	0.93	1.1
NCI-H2126	0.781	0.759	0.679	0.645	0.673	0.663	0.696	0.592	0.549	0.493	0.851	0.699	0.659	0.708	0.59	0.704	0.701	0.801	0.82	0.707
NCI-H2228	0.642	0.443	0.587	0.751	0.44	0.496	0.456	0.455	0.505	0.377	0.316	0.292	0.357	0.361	0.419	1.29	0.775	1.35	1.08	0.743
NCI-H2347	0.963	1	0.944	0.829	0.893	0.32	0.333	0.355	0.266	0.317	0.447	0.479	0.454	0.412	0.424	0.736	0.903	0.967	0.923	0.891
NCI-H2405	0.942	0.855	0.928	1.03	0.763	0.204	0.192	0.188	0.185	0.208	1.17	1.01	1	0.905	0.798	1.01	1.03	1.13	1.07	1.09
